Laboratory results published in patent US11459586B2, “Methods for increasing efficiency of nuclease-mediated gene editing in stem cells” (President and Fellows of Harvard College, priority 2016, dated 2022).
Peptide text beside a SMILES is read from it. * marks the point of attachment. Cbz = O=C(OCc1ccccc1)*; CH2F = FC*

What was measured:
human iPSC = format: cell-based
Method: FIGS. 10A-F. Effect of Caspase and p38 MAPK inhibitors on survival and gene targeting of human iPSC. FIG. 10A and FIG. 10B. Mouse Thy1 gene targeting scheme. Human iPSC were nucleofected with the mThy1 targeting vector, Cas9 nuclease, and Thy1 sgRNA expressing plasmid or pUC19 empty vector. Nucleofected cells were evenly divided and plated onto plain media (mTeSR1+10 μM Y-27632 ROCK inhibitor), or media supplemented with the indicated chemical inhibitor. For specific caspase inhibitors, the principal caspase they target is noted in parentheses. […] FIG. 10C. Two days after nucleofection, viable cells were counted. Error bars indicate s.e.m. of technical duplicates. Lines mark the count levels for nucleofected cells in plain media with or without sgRNA. FIG. 10D. Five days after transfection, cells were analyzed by flow cytometry for mThy1 and hThy1 expression. The percent of mThy1^+hThy1^− (bottom of each bar) and mThy1^+hThy1^+ (top of each bar) cells of live single cells is indicated. Lines mark the levels for cells in plain media. […] FIG. 10E. FACS plots of human iPSC transfected with the mThy1 targeting vector, Cas9 nuclease, and Thy1 Left and Right sgRNAs. Cells were subsequently cultured for 5 days in plain media±50 μM zVAD and ±10 μM SB203580. FIG. 10F. Human iPSC cultures were single cell FACS sorted into 96-well tissue culture plates containing a MEF feeder layer and hES media supplemented with SMC4 inhibitors±50 μM zVAD for eight days. Ten days after sorting, the number of surviving iPSC colonies was counted (from 190 cells sorted). PGP1 hiPSC lines created using retroviral vectors or non-integrating methods were both tested.
Pluripotency of iPSC cultures was verified by flow cytometry staining using anti-human Tra-1/60 PE (TRA-1-60, BD) and anti-human Oct3/4 eFluor 660 (EM92, eBioscience) with the fixation buffer sold under the trademark BD CYTOFIX™ and permeabilization buffer sold under the trademark PHOSFLOW™ Perm/Wash buffers. Human g-band karyotype analysis was done by Cell Line Genetics. Viable cell counts were measured with the cell analyzer sold under the trademark MUSE® Count & Viability Assay kit (EMD Millipore). Anti-human HLA-A2 APC (BB7.2) and anti-human HLA-BC PE (B1.23.2) were purchased from eBioscience. Human iPSC cultures were treated with 50 ng/ml recombinant interferon gamma (eBioscience) for 2 days prior to HLA staining.
Plasmids were purified using the plasmid DNA purification kit sold under the trademark Qiagen ENDOFREE® Plasmid Maxi kit and nucleofected into iPSC cells using the Lonza 4D-Nucleofector X unit (Buffer P3, Program CB-150). For each 20 μl nucleofection reaction, 0.2-0.5×106 iPSC were transfected with up to 4 μg of plasmid DNA. Post-nucleofection, iPSC were plated onto solubilized basement membrane matrix secreted by Engelbreth-Holm-Swarm (EHS) mouse sarcoma cells sold under the trademark […]®-coated wells containing feeder-free cell culture medium sold under the trademark MTESR1™ media with 10 μM Y-27632 plus other chemical inhibitors when noted. Later experiments included 50 μM zVAD-fmk (Bachem) for 1 day and 10 μM SB203580 (Biovision) for 4-5 days post transfection (see FIGS. 5, 6, 11, and 12). For FIG. 6 (ssODN transfection), 200 ng/ml recombinant B 18R (eBioscience), was also added to the culture for 5 days post transfection.
The following inhibitors were added to the hiPSC culture at the concentrations and time periods indicated in the Examples below. • 1. p53 or Bax inhibitors: cyclic pifithrin α (StemCell Technologies); pifithrin (Tocris); peptide V5, peptide control, iMAC1 and iMAC2 (EMD Millipore); N-acetyl cysteine and 4-hydroxy TEMPO (TEMPOL) (Sigma). • 2.

[1] = test system: human iPSC containing a doxycycline-inducible Cas9 nuclease; test: Cas9 nuclease toxicity in doxycycline-inducible Cas9 hiPSC (decline of CFP+EGFP+ cells); format: cell-based; details: zVAD added
Excerpt: FIGS. 1A-C. Cas9 nuclease toxicity in human iPSC only occurs with sgRNAs that target the human genome. FIG. 1A. A human iPSC line containing a doxycycline-inducible Cas9 nuclease was infected with lentivirus that constitutively expresses CFP together with an sgRNA. Three days after infection, each culture was divided into several wells and treated with the indicated concentrations of doxycycline for up to 14 days. FIG. 1B. At the indicated time points, the percent of CFP^+ of live single cells was determined by flow cytometry. […] FIG. 1C. 14 days after doxycycline induction, iPSC infected with the Thy1 sgRNA were stained for expression of the Thy1 surface marker and analyzed by flow cytometry. The percent of Thy1-negative edited cells gated on the CFP^+ infected cells is shown for varying concentrations of doxycycline. Results are representative of three independent experiments.
FIGS. 2A-B. Nuclease-mediated toxicity in human iPSC can be rescued by overexpression of dominant negative p53 or anti-apoptotic Bcl-2 family members. FIG. 2A. […] At the indicated time points, the percent of CFP EGFP^+ iPSC was determined by flow cytometry. […]
FIG. 13. […] At the indicated time points, the percent of CFP^+EGFP^+ iPSC was determined by flow cytometry. […]

**Q.** Which results are given for `CC(NC(=O)C(NC(=O)OCc1ccccc1)C(C)C)C(=O)NC(CC(=O)O)C(=O)CF` (stereo not drawn) [zVAD] (Cbz-Val-Ala-Asp-CH2F; configuration not given here)?
**A.** anoikis rescue (human iPSC; lower concentration, 25 μM): did not show as much anoikis rescue; rescue of hiPSC from cell death (anoikis) after nucleofection (human iPSC; viable cells two days after nucleofection, sgRNA plasmid or pUC19 control): rescued cells transfected with an sgRNA, and also those transfected with the pUC19 control; doxycycline-induced Cas9 nuclease toxicity [1]: did not affect
